Patent US12535491B2, “Vaccine comprising protein-targeted (PT) extracellular DNA isolated from bacterial matrix” (priority 2018, dated 2026)

Tests used:
[1] = test system: non-amyloid producer Escherichia coli strain RA-74; type: cell-based
[2] = test system: microbial amyloid; type: cell-based, Escherichia coli
[3] = test system: amyloid producing Escherichia coli strain VT-156; type: cell-based
[4] = test system: HSV-1; type: cell-based, human Herpes Virus 1
[5] = test system: beta-amyloid (Aβ); test: Amount of Aβ in the brain of Tg2576 mice injected with S. aureus bacterial DNA, with or without DNase (sandwich ELISA); type: in vivo, mice (line Tg2576)
From the text: The effect on the model of increased gut permeability in mice was studied. Increased gut permeability allows increased levels of bacterial DNA in the blood circulation, leading to the increase in the level of beta amyloid (Bala, S. et al., 2014; DiBiagio, J. R. et al., 2016). DNAse prevents the appearance of a thermostable protein formed by the extracellular DNA.
Hemizygous transgenic mice expressing familial Alzheimer's disease mutant human (line Tg2576, Hsiao et al., 1996). A total of 70 male mice were used. To identify beta-amyloid (AB) amount, one quarter brain from each animal was homogenized in 70% formic acid at a weight: volume ratio of 100 mg/ml. The homogenate was sonicated for 2 min and centrifuged at 100,000 g for 1 h. After centrifugation, the supernatant fraction was removed and neutralized with 19 vol of Tris-phosphate buffer. Samples were analyzed by a modified sandwich ELISA that detects total AB. To detect human Aβ, aliquots of homogenate were added to Nunc Maxisorb plates coated with monoclonal antibody 6E10 (Senetek) capture antibody. After incubation at 4° C. overnight, human Ab was detected by monoclonal antibody 4G8 (Senetek) conjugated to horseradish peroxidase (HRP). After washing with PBS containing 0.05% Tween 20, the bound peroxidase was detected by the TMB peroxidase kit (Kirkegaard & Perry). Plates were read at 450 nm in a standard plate reader, and unknowns were quantified by comparison to known quantities of freshly dissolved Ab40 (Bachem).
Animals were injected daily, with increasing concentrations of S. aureus bacterial DNA. Control animals were injected with sterile water. DNase (2000 Kunitz units) was administered orally or by IV on day 1.

[6] = test system: SU-DHL4 target cell lines; test: Antibody-dependent cell-mediated cytotoxicity (ADCC) assay; type: cell-based; details: SU-DHL4 target cells
Method: The efficacies of Rituximab and Rituximab-Mod were compared based on Binding to CD20-expressing target cells and antibody-dependent cell-mediated cytotoxicity [ADCC] assays.
The binding of Rituximab-Mod and rituximab was assessed on SU-DHL4 cell lines with high (1,000,000) CD20 receptor copy numbers. […] The ability of Rituximab-Mod and rituximab to mediate ADCC was assessed using SU-DHL4 target cell lines. The potency of Rituximab-Mod was higher than that of rituximab.

Compound | Bacterial OD (570 nm), Escherichia coli strain RA-74 [1] | decrease in CR binding [2] | Bacterial OD (570 nm) [3] | other results
CCN(CC)CCCC(C)Nc1c2ccc(Cl)cc2nc2ccc(OC)cc12 (stereo not shown) [Quinacrine] | 1.406 | about 40% | 0.657 | –
C=CC[C@@H]1/C=C(\C)C[C@H](C)C[C@H](OC)[C@H]2O[C@@](O)(C(=O)C(=O)N3CCCC[C@H]3C(=O)O[C@H](/C(C)=C/[C@@H]3CC[C@@H](O)[C@H](OC)C3)[C@H](C)[C@@H](O)CC1=O)[C@H](C)C[C@@H]2OC [Tacrolimus] | 1.382 | about 40% | 0.678 | Number (%) of unaltered cells, Herpes virus of type I [4]: 30%; antiviral activity against the herpes virus (type I) [4]: has the antiviral activity
DNase | – | – | – | Total Aβ in the brain ([5]; DNA 5 mcg + DNase 5 mcg IV): 94 ± 23 pmol/mg; Total Aβ in the brain ([5]; DNA 5 mcg + DNase 5 mcg PO): 103 ± 35 pmol/mg; Total Aβ in the brain ([5]; DNA 20 mcg + DNase 5 mcg IV): 73 ± 12 pmol/mg; Total Aβ in the brain ([5]; DNA 20 mcg + DNase 5 mcg PO): 95 ± 12 pmol/mg
Pentosan polysulfate | 1.416 | about 40% | – | Bacterial OD (570 nm), Escherichia coli strain VT-56 [3]: 0.547
rituximab | – | – | – | EC50 of target cell killing (ADCC) [6]: ~0.01 µg/mL
